Results published in ChEMBL document CHEMBL3044741, “Synthesis of novel biologically active methylene derivatives of sydnones” (Med Chem Res, 2013).
Converted amounts (≈) assume the structure as drawn.

How the values were obtained:
[1] = Selectivity index, ratio of CC50 for human MT4 cells to IC50 for HIV2 ROD; format: functional
[2] = Cytotoxicity against human MT4 cells by MTT assay; format: cell-based
[3] = Selectivity index, ratio of CC50 for human MT4 cells to IC50 for HIV1 3B; format: functional
[4] = tested on: Human immunodeficiency virus 2; assay: Antiviral activity against HIV2 ROD infected in MT4 cells assessed as inhibition of virus-induced cytopathogenicity by MTT assay; format: functional, organism-based; conditions: Human immunodeficiency virus 2, ISOLATE ROD
[5] = tested on: Human alphaherpesvirus 3; assay: Antiviral activity against thymidine kinase-deficient Varicella-zoster virus infected in HEL cells assessed as reduction in plaque formation; format: functional, organism-based; conditions: Human alphaherpesvirus 3, HEL
[6] = tested on: Human immunodeficiency virus 1; assay: Antiviral activity against HIV1 3B infected in MT4 cells assessed as inhibition of virus-induced cytopathogenicity by MTT assay; format: functional, organism-based; conditions: Human immunodeficiency virus 1, 3B
[7] = tested on: Human alphaherpesvirus 3; assay: Antiviral activity against Varicella-zoster virus Oka expressing thymidine kinase infected in HEL cells assessed as reduction in plaque formation; format: functional, organism-based; conditions: Human alphaherpesvirus 3, strain Oka vaccine
[8] = Cytotoxicity against human HEL cells; format: cell-based
[9] = tested on: Cytomegalovirus; assay: Antiviral activity against Cytomegalovirus Davis in HEL cells assessed as reduction in plaque formation; format: functional, organism-based; conditions: Human betaherpesvirus 5, Davis
[10] = Cytotoxicity against human HEL cells assessed as alteration in cell morphology; format: cell-based
[11] = tested on: Cytomegalovirus; assay: Antiviral activity against Cytomegalovirus AD-169 infected in HEL cells assessed as reduction in plaque formation; format: functional, organism-based; conditions: Human betaherpesvirus 5, AD-169, HEL
[12] = tested on: Aspergillus niger; assay: Antifungal activity against Aspergillus niger MTCC 282; format: functional
[13] = tested on: Aspergillus clavatus; assay: Antifungal activity against Aspergillus clavatus MTCC 1323; format: functional
[14] = tested on: Candida albicans; assay: Antifungal activity against Candida albicans MTCC 227; format: functional
[15] = tested on: Aspergillus niger; assay: Antifungal activity against Aspergillus niger MTCC 282 at 250 ug/ml after 74 hrs by Kirby-Bauer method; format: functional; conditions: MTCC 282, 74 h, read-out: IZ
[16] = tested on: Aspergillus clavatus; assay: Antifungal activity against Aspergillus clavatus MTCC 1323 at 250 ug/ml after 74 hrs by Kirby-Bauer method; format: functional; conditions: MTCC 1323, 74 h, read-out: IZ
[17] = tested on: Candida albicans; assay: Antifungal activity against Candida albicans MTCC 227 at 250 ug/ml after 74 hrs by Kirby-Bauer method; format: functional; conditions: MTCC 227, 74 h, read-out: IZ
[18] = tested on: Pseudomonas aeruginosa; assay: Antibacterial activity against Pseudomonas aeruginosa MTCC 424 after 24 hrs by broth dilution method; format: functional; conditions: MTCC 424, 24 h
[19] = tested on: Streptococcus pyogenes; assay: Antibacterial activity against Streptococcus pyogenes MTCC 442 after 24 hrs by broth dilution method; format: functional; conditions: MTCC 442, 24 h
[20] = tested on: Escherichia coli; assay: Antibacterial activity against Escherichia coli MTCC 443 after 24 hrs by broth dilution method; format: functional; conditions: MTCC 443, 24 h
[21] = tested on: Staphylococcus aureus; assay: Antibacterial activity against Staphylococcus aureus MTCC 96 after 24 hrs by broth dilution method; format: functional; conditions: MTCC 96, 24 h
[22] = tested on: Pseudomonas aeruginosa; assay: Antibacterial activity against Pseudomonas aeruginosa MTCC 424 at 250 ug/ml after 24 hrs by Kirby-Bauer method; format: functional; conditions: MTCC 424, 24 h, read-out: IZ
[23] = tested on: Escherichia coli; assay: Antibacterial activity against Escherichia coli MTCC 443 at 250 ug/ml after 24 hrs by Kirby-Bauer method; format: functional; conditions: MTCC 443, 24 h, read-out: IZ
[24] = tested on: Streptococcus pyogenes; assay: Antibacterial activity against Streptococcus pyogenes MTCC 442 at 250 ug/ml after 24 hrs by Kirby-Bauer method; format: functional; conditions: MTCC 442, 24 h, read-out: IZ
[25] = tested on: Staphylococcus aureus; assay: Antibacterial activity against Staphylococcus aureus MTCC 96 at 250 ug/ml after 24 hrs by Kirby-Bauer method; format: functional; conditions: MTCC 96, 24 h, read-out: IZ

SMILES	Ratio CC50/IC50 [1]	CC50 [2] [µg/mL]	Ratio CC50/IC50 [3]	IC50 [4] [µg/mL]	EC50 [5] [µg/mL]	IC50 [6] [µg/mL]	EC50 [7] [µg/mL]	CC50 [8] [µg/mL]	EC50 [9] [µg/mL]	MCC [10] [µg/mL]	EC50 [11] [µg/mL]	MIC [12] [µg/mL]	MIC [13] [µg/mL]	MIC [14] [µg/mL]	zone of inhibition at 250 µg/mL [15] [mm]	zone of inhibition at 250 µg/mL [16] [mm]	zone of inhibition at 250 µg/mL [17] [mm]	MIC [18] [µg/mL]	MIC [19] [µg/mL]	MIC [20] [µg/mL]	other results
Cc1ccc(-[n+]2noc([O-])c2CN2CCN(C)CC2)cc1	<1	12.7 (≈ 44 µM)	<1	> 12.7	> 20	> 12.9	> 20	25.6 (≈ 88.8 µM)	> 20	100	> 20	500 (≈ 1730 µM)	500 (≈ 1730 µM)	500 (≈ 1730 µM)	21	21	18	100 (≈ 347 µM)	100 (≈ 347 µM)	250 (≈ 867 µM)	MIC [21]: 500 µg/mL (≈ 1730 µM); zone of inhibition at 250 µg/mL [22]: 21 mm; zone of inhibition at 250 µg/mL [23]: 18 mm; zone of inhibition at 250 µg/mL [24]: 20 mm; zone of inhibition at 250 µg/mL [25]: 16 mm
[O-]c1on[n+](-c2ccc(Cc3ccc(-[n+]4noc([O-])c4CN4CCNCC4)cc3)cc2)c1CN1CCNCC1	<1	14 (≈ 26.3 µM)	<1	> 14	> 4	> 14	> 4	20 (≈ 37.6 µM)	20 (≈ 37.6 µM)	100	11.7 (≈ 22 µM)	250 (≈ 469 µM)	1000 (≈ 1880 µM)	1000 (≈ 1880 µM)	23	19	21	100 (≈ 188 µM)	500 (≈ 939 µM)	62.5 (≈ 117 µM)	MIC [21]: 200 µg/mL (≈ 376 µM); zone of inhibition at 250 µg/mL [22]: 21 mm; zone of inhibition at 250 µg/mL [23]: 21 mm; zone of inhibition at 250 µg/mL [24]: 17 mm; zone of inhibition at 250 µg/mL [25]: 18 mm
Cc1ccc(-[n+]2noc([O-])c2CN2CCN(c3ccccc3)CC2)cc1	<1	13.2 (≈ 37.8 µM)	<1	> 13.2	> 4	> 13.2	> 4	20 (≈ 57.1 µM)	> 20	100	> 20	200 (≈ 571 µM)	500 (≈ 1430 µM)	500 (≈ 1430 µM)	24	21	21	100 (≈ 285 µM)	250 (≈ 713 µM)	500 (≈ 1430 µM)	MIC [21]: 250 µg/mL (≈ 713 µM); zone of inhibition at 250 µg/mL [22]: 20 mm; zone of inhibition at 250 µg/mL [23]: 16 mm; zone of inhibition at 250 µg/mL [24]: 18 mm; zone of inhibition at 250 µg/mL [25]: 18 mm
CC(=O)N1CCN(Cc2c([O-])on[n+]2-c2ccc(Cc3ccc(-[n+]4noc([O-])c4CN4CCN(C(C)=O)CC4)cc3)cc2)CC1	<1	12 (≈ 19.4 µM)	<1	> 12	> 0.8	> 12	> 0.8	10.2 (≈ 16.5 µM)	> 4	20	> 4	1000 (≈ 1620 µM)	250 (≈ 405 µM)	250 (≈ 405 µM)	21	25	23	200 (≈ 324 µM)	100 (≈ 162 µM)	250 (≈ 405 µM)	MIC [21]: 250 µg/mL (≈ 405 µM); zone of inhibition at 250 µg/mL [22]: 18 mm; zone of inhibition at 250 µg/mL [23]: 18 mm; zone of inhibition at 250 µg/mL [24]: 16 mm; zone of inhibition at 250 µg/mL [25]: 20 mm
[O-]c1on[n+](-c2ccc(Cc3ccc(-[n+]4noc([O-])c4CN4CCN(c5ccccc5)CC4)cc3)cc2)c1CN1CCN(c2ccccc2)CC1	<1	10.3 (≈ 15 µM)	<1	> 10.3	> 4	> 10.3	> 4	12 (≈ 17.5 µM)	> 20	≥ 20	> 4	1000 (≈ 1460 µM)	250 (≈ 365 µM)	250 (≈ 365 µM)	20	25	21	100 (≈ 146 µM)	200 (≈ 292 µM)	125 (≈ 183 µM)	MIC [21]: 500 µg/mL (≈ 730 µM); zone of inhibition at 250 µg/mL [22]: 22 mm; zone of inhibition at 250 µg/mL [23]: 20 mm; zone of inhibition at 250 µg/mL [24]: 18 mm; zone of inhibition at 250 µg/mL [25]: 17 mm
Cc1ccc(-[n+]2noc([O-])c2CN2CCN(C)C(c3ccccc3)C2)cc1 (stereo not given)	<1	14.4 (≈ 39.5 µM)	<1	> 14.4	> 20	> 14.4	> 20	23.7 (≈ 65 µM)	> 20	100	> 20	1000 (≈ 2740 µM)	200 (≈ 549 µM)	200 (≈ 549 µM)	18	21	18	100 (≈ 274 µM)	100 (≈ 274 µM)	500 (≈ 1370 µM)	MIC [21]: 250 µg/mL (≈ 686 µM); zone of inhibition at 250 µg/mL [22]: 21 mm; zone of inhibition at 250 µg/mL [23]: 16 mm; zone of inhibition at 250 µg/mL [24]: 21 mm; zone of inhibition at 250 µg/mL [25]: 19 mm
Cc1ccc(-[n+]2noc([O-])c2CN2CCN(c3cccc(Cl)c3Cl)CC2)cc1	<1	31.7 (≈ 75.6 µM)	<1	> 31.7	> 4	> 31.7	> 4	28.8 (≈ 68.7 µM)	> 4	20	4 (≈ 9.54 µM)	500 (≈ 1190 µM)	250 (≈ 596 µM)	250 (≈ 596 µM)	21	23	18	1000 (≈ 2380 µM)	200 (≈ 477 µM)	125 (≈ 298 µM)	MIC [21]: 500 µg/mL (≈ 1190 µM); zone of inhibition at 250 µg/mL [22]: 16 mm; zone of inhibition at 250 µg/mL [23]: 21 mm; zone of inhibition at 250 µg/mL [24]: 19 mm; zone of inhibition at 250 µg/mL [25]: 17 mm
CC(=O)N1CCN(Cc2c([O-])on[n+]2-c2ccc(C)cc2)CC1	<1	17.3 (≈ 54.6 µM)	<1	> 17.3	> 20	> 17.3	> 20	24.9 (≈ 78.7 µM)	> 20	100	> 20	200 (≈ 632 µM)	200 (≈ 632 µM)	200 (≈ 632 µM)	26	24	22	500 (≈ 1580 µM)	100 (≈ 316 µM)	250 (≈ 790 µM)	MIC [21]: 500 µg/mL (≈ 1580 µM); zone of inhibition at 250 µg/mL [22]: 17 mm; zone of inhibition at 250 µg/mL [23]: 19 mm; zone of inhibition at 250 µg/mL [24]: 21 mm; zone of inhibition at 250 µg/mL [25]: 17 mm
[O-]c1on[n+](-c2ccc(Cc3ccc(-[n+]4noc([O-])c4CN4CCN(c5cccc(Cl)c5)CC4)cc3)cc2)c1CN1CCN(c2cccc(Cl)c2)CC1	<1	13.2 (≈ 17.5 µM)	<1	> 13.2	> 4	> 13.2	> 4	> 100	20 (≈ 26.5 µM)	≥ 20	> 4	1000 (≈ 1330 µM)	1000 (≈ 1330 µM)	1000 (≈ 1330 µM)	20	22	21	500 (≈ 663 µM)	200 (≈ 265 µM)	250 (≈ 332 µM)	MIC [21]: 250 µg/mL (≈ 332 µM); zone of inhibition at 250 µg/mL [22]: 17 mm; zone of inhibition at 250 µg/mL [23]: 18 mm; zone of inhibition at 250 µg/mL [24]: 19 mm; zone of inhibition at 250 µg/mL [25]: 19 mm
[O-]c1on[n+](-c2ccc(Cc3ccc(-[n+]4noc([O-])c4CN4CCN(c5cccc(Cl)c5Cl)CC4)cc3)cc2)c1CN1CCN(c2cccc(Cl)c2Cl)CC1	<1	20.8 (≈ 25.3 µM)	<1	> 20.8	> 4	> 20.8	> 4	28.7 (≈ 34.9 µM)	> 20	100	12.6 (≈ 15.3 µM)	250 (≈ 304 µM)	1000 (≈ 1220 µM)	1000 (≈ 1220 µM)	23	23	21	250 (≈ 304 µM)	200 (≈ 243 µM)	125 (≈ 152 µM)	MIC [21]: 125 µg/mL (≈ 152 µM); zone of inhibition at 250 µg/mL [22]: 17 mm; zone of inhibition at 250 µg/mL [23]: 21 mm; zone of inhibition at 250 µg/mL [24]: 18 mm; zone of inhibition at 250 µg/mL [25]: 21 mm
